Experimental data reported in patent US10030027B2, “Soluble guanylate cyclase stimulators” (MERCK SHARP & DOHME CORP., priority 2015, dated 2018).

Experiments:
sGC α1/β1 heterodimer = sGC α1/β1 heterodimer (Homo sapiens (Human), UniProt Q02108+Q02153); experiment: Cell-based sGC functional assay (cyclic GMP assay for sGC activator: CASA assay); set-up: % Activation: concentration or dose not given beside the values; details: CHO-K1/sGC cells; for Emax: CHO-K1, activity expressed as percentage of compound A (standard), read-out: % Activation; for EC50: inflection point, 4P fit, read-out: IP; for % Activation: activity expressed as percentage of compound A (standard)
How it was run: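 CHO-K1 cells stably expressing sGC α1/β1 were pre-incubated with or without 1 μM DETA-NO (30 min, 25 °C), then exposed to compounds for 1 hr at 37 °C with 0.5 mM IBMX. Intracellular cGMP was read by HTRF and expressed as a percentage of a reference heme-dependent activator's maximum.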

[1] = biological target: human recombinant sGC enzyme (Homo sapiens (Human), UniProt Q02108+Q02153); experiment: Size Exclusion Chromatography (SEC) competition binding assay using [3H] Ex-77B as the radioligand; details: [3H] Ex-77B radioligand, 24 hours at 37° C.
How it was run: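 Recombinant human sGC binding measured by competition against tritiated Ex-77B radioligand, with non-specific binding defined by 1 μM unlabeled Ex-77B.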

[2] = system: Spontaneously hypertensive rats (SHR); experiment: Acute efficacy in spontaneously hypertensive rats (SHR); format: in vivo, rat
Source text: Acute Efficacy in Spontaneously Hypertensive Rats (SHR)
Spontaneously hypertensive rats (SHR, male, Charles River) were implanted with DSI TA11PA-C40 telemetry device (Data Sciences, Inc., St. Paul, Minn.) under isoflurane or ketamine/metomidine anesthesia. The telemetry unit catheter was inserted into the descending aorta via the femoral artery and the telemetry device was implanted subcutaneously in the left flank area. Animals were allowed to recover from surgery for 14 days before the start of any studies. Blood pressure, heart rate, and activity signals from conscious, freely moving rats were recorded continuously for 30 seconds every 10 minutes. On the day prior to administration of compound, a single oral dose of vehicle (10% transcutol/20% Cremophor/70% water) was administered to all animals to establish baseline control data. The blood pressure lowering efficacy of compound (PO) or vehicle was evaluated following a single oral gavage. Data were collected as hourly averages, and changes in blood pressure were calculated by subtracting control baseline data on an hourly basis. Animals were maintained on normal diet with a 12 hour light-dark cycle.
Maximum peak decreases of systolic blood pressure (SBP) in SHR at a particular P.O. dose (mpk milligrams per kilogram) for the following Example compounds are provided.

SMILES | Emax (sGC α1/β1 heterodimer) | EC50 (sGC α1/β1 heterodimer) | Ki [1] | Category: maximum peak decrease of systolic blood pressure (SBP) in SHR ([2]; Dose P.O. 3 mpk) | Category: maximum peak decrease of systolic blood pressure (SBP) in SHR ([2]; Dose P.O. 1 mpk) | % Activation (sGC α1/β1 heterodimer)
CCCCn1nc(-c2nc(N)c3c(n2)NC(=O)[C@@]3(C)c2ccc(CCC(=O)O)cc2)c2ccc(Cl)cc21 [Example 38B, (S)-3-{4-[4-amino-2-(1-butyl-6-chloro-1H-indazol-3-yl)-5-methyl-6-oxo-6,7-dihydro-5H-pyrrolo[2,3-d]pyrimidin-5-yl]phenyl}propanoic acid] | 98% | 220 nM | 0.145 nM | A (decrease in SBP in SHRs 5-25 mmHg) | – | –
CC(C)(Cc1csc([C@]2(C)C(=O)Nc3nc(-c4nn(Cc5ccccc5F)c5ncccc45)nc(N)c32)n1)C(=O)O [Example 90B, (S)-3-(2-{4-amino-2-[1-(2-fluorobenzyl)-1H-pyrazolo[3,4-b]pyridin-3-yl]-5-methyl-6-oxo-6,7-dihydro-5H-pyrrolo[2,3-d]pyrimidin-5-yl}-1,3-thiazol-4-yl)-2,2-dimethylpropanoic acid] | 112% | 129 nM | 0.063 nM | – | B (decrease in SBP in SHRs 25-40 mmHg) | –
CCCCn1nc(-c2nc(N)c3c(n2)NC(=O)C3(C)c2nc(CC(C)(C)C(=O)O)cs2)c2cccnc21 (stereo not drawn) [Example 86A, 3-{2-[4-amino-2-(1-butyl-1H-pyrazolo[3,4-b]pyridin-3-yl)-5-methyl-6-oxo-6,7-dihydro-5H-pyrrolo[2,3-d]pyrimidin-5-yl]-1,3-thiazol-4-yl}-2,2-dimethylpropanoic acid] | 102% | 247 nM | 0.323 nM | – | A (decrease in SBP in SHRs 5-25 mmHg) | –
CC(C)(CC(=O)O)c1csc([C@]2(C)C(=O)Nc3nc(-c4nn(CCC(F)(F)C(F)(F)F)c5ncccc45)nc(N)c32)n1 [Example 79B, (S)-3-(2-{4-amino-5-methyl-6-oxo-2-[1-(3,3,4,4,4-pentafluorobutyl)-1H-pyrazolo[3,4-b]pyridin-3-yl]-6,7-dihydro-5H-pyrrolo[2,3-d]pyrimidin-5-yl}-1,3-thiazol-4-yl)-3-methylbutanoic acid] | 124% | 843 nM | 0.42 nM | A (decrease in SBP in SHRs 5-25 mmHg) | – | –
CC(C)(Cc1ccc(C2(C)C(=O)Nc3nc(-c4nn(CCC(F)(F)C(F)(F)F)c5cc(Cl)ccc45)nc(N)c32)cc1)C(=O)O (stereo not drawn) [Example 33B, 3-(4-{4-amino-2-[6-chloro-1-(3,3,4,4,4-pentafluorobutyl)-1H-indazol-3-yl]-5-methyl-6-oxo-6,7-dihydro-5H-pyrrolo[2,3-d]pyrimidin-5-yl}phenyl)-2,2-dimethylpropanoic acid] | 100% | 804 nM | 0.594 nM | B (decrease in SBP in SHRs 25-40 mmHg) | – | –
CCCCn1nc(-c2nc(N)c3c(n2)NC(=O)[C@@]3(C)c2ccc(CCC(=O)O)cc2)c2ccc(Cl)nc21 [Example 13B, (S)-3-(4-{4-amino-2-(1-butyl-6-chloro-1H-pyrazolo[3,4-b]pyridin-3-yl)-5-methyl-6-oxo-6,7-dihydro-5H-pyrrolo[2,3-d]pyrimidin-5-yl}phenyl)propanoic acid] | 86% | 152 nM | 0.112 nM | A (decrease in SBP in SHRs 5-25 mmHg) | – | –
CCCCn1nc(-c2nc(N)c3c(n2)NC(=O)[C@@]3(C)c2ccc(CCC(=O)O)cc2)c2cccnc21 [Example 14B, (S)-3-(4-{4-amino-2-(1-butyl-1H-pyrazolo[3,4-b]pyridin-3-yl)-5-methyl-6-oxo-6,7-dihydro-5H-pyrrolo[2,3-d]pyrimidin-5-yl}phenyl)propanoic acid] | 90% | 525 nM | 0.21 nM | A (decrease in SBP in SHRs 5-25 mmHg) | – | –
CC(C)(Cc1csc([C@]2(C)C(=O)Nc3nc(-c4nn(CCCC(F)(F)F)c5nc(Cl)ccc45)nc(N)c32)n1)C(=O)O [Example 89B, (S)-3-(2-{4-amino-2-[6-chloro-1-(4,4,4-trifluorobutyl)-1H-pyrazolo[3,4-b]pyridin-3-yl]-5-methyl-6-oxo-6,7-dihydro-5H-pyrrolo[2,3-d]pyrimidin-5-yl}-1,3-thiazol-4-yl)-2,2-dimethylpropanoic acid] | 108% | 442 nM | 0.343 nM | B (decrease in SBP in SHRs 25-40 mmHg) | – | –
CC1(c2cccc(CCC(=O)O)c2)C(=O)Nc2nc(-c3nn(Cc4ccccc4F)c4ncccc34)nc(N)c21 (stereo not drawn) [Example 22A, 3-(3-{4-amino-2-[1-(2-fluorobenzyl)-1H-pyrazolo[3,4-b]pyridin-3-yl]-5-methyl-6-oxo-6,7-dihydro-5H-pyrrolo[2,3-d]pyrimidin-5-yl}phenyl)propanoic acid] | 91% | 423 nM | 0.078 nM | A (decrease in SBP in SHRs 5-25 mmHg) | – | –
C[C@@]1(c2nc(CCC(=O)O)cs2)C(=O)Nc2nc(-c3nn(CCC(F)(F)C(F)(F)F)c4ncccc34)nc(N)c21 (single isomer, unassigned) [Example 82B] | 107% | 1370 nM | 0.223 nM | A (decrease in SBP in SHRs 5-25 mmHg) | – | –
Cc1cc(C2(C)C(=O)Nc3nc(-c4nn(CCC(F)(F)C(F)(F)F)c5cc(Cl)ccc45)nc(N)c32)ccc1CCC(=O)O (stereo not drawn) [Example 121B, 3-(4-{4-Amino-2-[6-chloro-1-(3,3,4,4,4-pentafluorobutyl)-1H-indazol-3-yl]-5-methyl-6-oxo-6,7-dihydro-5H-pyrrolo[2,3-d]pyrimidin-5-yl}-2-methylphenyl)propanoic acid] | 118% | 238 nM | 0.234 nM | A (decrease in SBP in SHRs 5-25 mmHg) | – | –
CC(Cc1ccc(C2(C)C(=O)Nc3nc(-c4nn(CCC(F)(F)C(F)(F)F)c5cc(Cl)ccc45)nc(N)c32)cc1)C(=O)O (single isomer, unassigned) [Example 34AB, 3-(4-{4-amino-2-[6-chloro-1-(3,3,4,4,4-pentafluorobutyl)-1H-indazol-3-yl]-5-methyl-6-oxo-6,7-dihydro-5H-pyrrolo[2,3-d]pyrimidin-5-yl}phenyl)-2-methylpropanoic acid] | – | 771 nM | 0.231 nM | – | A (decrease in SBP in SHRs 5-25 mmHg) | 115%
CC(Cc1ccc(C2(C)C(=O)Nc3nc(-c4nn(CCC(F)(F)C(F)(F)F)c5cc(Cl)ccc45)nc(N)c32)cc1)C(=O)O (single isomer, unassigned) [Example 34AA, 3-(4-{4-amino-2-[6-chloro-1-(3,3,4,4,4-pentafluorobutyl)-1H-indazol-3-yl]-5-methyl-6-oxo-6,7-dihydro-5H-pyrrolo[2,3-d]pyrimidin-5-yl}phenyl)-2-methylpropanoic acid] | – | 437 nM | 0.138 nM | A (decrease in SBP in SHRs 5-25 mmHg) | – | 81%
CCCCCCn1nc(-c2nc(N)c3c(n2)NC(=O)[C@@]3(C)c2ccc(CCC(=O)O)cc2)c2ccc(Cl)cc21 [Example 45B, (S)-3-{4-[4-amino-2-(6-chloro-1-hexyl-1H-indazol-3-yl)-5-methyl-6-oxo-6,7-dihydro-5H-pyrrolo[2,3-d]pyrimidin-5-yl]phenyl}propanoic acid] | 95% | 210 nM | 0.182 nM | B (decrease in SBP in SHRs 25-40 mmHg) | – | –
C[C@@]1(c2ccc(CCC(=O)O)cc2)C(=O)Nc2nc(-c3nn(CC4CCCCC4)c4cc(Cl)ccc34)nc(N)c21 [Example 44B, (S)-3-(4-{4-amino-2-[6-chloro-1-(cyclohexylmethyl)-1H-indazol-3-yl]-5-methyl-6-oxo-6,7-dihydro-5H-pyrrolo[2,3-d]pyrimidin-5-yl}phenyl)propanoic acid] | 127% | 245 nM | 0.123 nM | C (decrease in SBP in SHRs>40 mmHg) | – | –
